Assay results taken from paper PMC12652113, “Fluorescent Albumin-Binding N-Propylbenzene Indolenine-Based Squaraines as Potential Candidates for Prostate Cancer Photodynamic Therapy Photosensitizers” (International Journal of Molecular Sciences, 2025).
pIC50: −log10 of the molar value. “Also recorded” adds a separate entry of the source. Like-named read-outs stand apart in the source and are kept apart here.

Key:
[1] = Aggregation behavior (Vis absorption in phosphate buffer, with or without Triton X-100); type: physicochemical; settings: phosphate buffer vs DMSO
Procedure: Squaraine dyes were dissolved in dimethyl sulfoxide, whereas zinc phthalocyanine required dimethylformamide as a solvent. All stock solutions were prepared at 0.67 mM concentration and stored in the dark at 4 °C until further use. For spectroscopic characterization, 1.0 µM stock solutions of the squaraine dyes in dimethyl sulfoxide were serially diluted into a series of solvents (chloroform, dimethyl sulfoxide, methanol, and phosphate buffer) to obtain at least five defined concentrations. The absorption spectra of these dilutions were recorded and used to calculate molar extinction coefficients according to the Beer–Lambert law. Additional working solutions at a 1.0 µM concentration were prepared in dimethyl sulfoxide and buffer, and 1.0% Triton X-100 was added where required to investigate dye aggregation.

[2] = target: human serum albumin (HSA) (Homo sapiens, UniProt P02768); experiment: Fluorometric squaraine-albumin binding titration; settings: for detection limit (DL): HSA detection, DL=3σ/S; for quantification limit (QL): HSA quantification, QL=10σ/S; for fluorescence intensity without protein (F0): dye 2.0 µM in phosphate buffer, no HSA; for fluorescence intensity at the highest protein concentration (F): dye 2.0 µM, highest HSA concentration; for Stokes shift (ΔS) / absorption maximum (λabs) / emission maximum (λem) / fluorescence quantum yield (ΦF): phosphate buffer (pH 7.4), HSA presence; for F/F0: ratio of fluorescence with HSA to fluorescence without HSA; for incubation time to reach maximum fluorescence with HSA: room temperature, protected from light; for incubation time to reach maximum fluorescence with HSA / incubation time for maximum interaction with HSA: read at 0 min, 3 h, 24 h
human serum albumin (HSA), sequence (P02768 25-609): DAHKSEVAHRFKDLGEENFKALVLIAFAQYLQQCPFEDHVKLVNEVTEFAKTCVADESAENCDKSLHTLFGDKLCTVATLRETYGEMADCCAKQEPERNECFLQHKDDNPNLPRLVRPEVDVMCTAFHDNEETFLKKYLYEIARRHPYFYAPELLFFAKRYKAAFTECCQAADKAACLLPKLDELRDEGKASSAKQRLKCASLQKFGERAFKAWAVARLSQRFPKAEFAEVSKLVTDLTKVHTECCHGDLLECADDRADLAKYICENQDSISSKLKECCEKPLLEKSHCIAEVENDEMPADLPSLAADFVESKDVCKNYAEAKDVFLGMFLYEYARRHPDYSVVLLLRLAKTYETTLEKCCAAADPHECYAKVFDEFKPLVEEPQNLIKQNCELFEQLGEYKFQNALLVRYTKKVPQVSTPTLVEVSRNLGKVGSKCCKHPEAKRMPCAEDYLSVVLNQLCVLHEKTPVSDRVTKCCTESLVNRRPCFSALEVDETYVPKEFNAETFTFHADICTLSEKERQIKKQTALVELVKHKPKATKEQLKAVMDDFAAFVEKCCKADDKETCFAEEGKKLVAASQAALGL
Procedure: For fluorometric experiments, the squaraine stock solutions were initially prepared in dimethylformamide and subsequently diluted with phosphate buffer for the protein–dye interaction analysis. Human serum albumin stock solution was then added to these mixtures, while keeping the dye concentration fixed at 2.0 µM and varying the protein concentration from 0 to 3.0 µM (0.0 to 3.0 µM for squaraines 5, 9, and 11, and from 0 to 6.0 µM for squaraine 13). Fluorescence intensities of the resulting solutions were recorded after 0, 3, and 24 h of incubation with the protein. The excitation wavelengths and excitation/emission slit widths used for the measurements were optimized for each dye, as listed in Table 6.
The squaraine-albumin binding constants was calculated using the Benesi–Hildebrand equation (Equation (3)) based on the data obtained from the fluorescence experiments:(3) 1/Fx−F0=1/F∞−F0+1/Kb(F∞−F0)1/[HSA] where F0 is the fluorescence intensity of the squaraine in albumin-free buffer, Fx is the fluorescence observed after protein incubation at a specific concentration, F∞ is the fluorescence at the point of complete interaction, Kb is the binding constant, and [HSA] is the albumin concentration.
Quantification and detection limits (QL and DL, respectively) were determined from a calibration curve of maximum fluorescence intensity against protein concentration. The slope of this curve was then used to calculate the method’s sensitivity using Equations (4) and (5):(4) QL=10σ/S (5) DL=3σ/S where σ refers to the blank standard deviation and S (sensitivity) to the linear regression slope between the fluorescence intensity and albumin concentration.

[3] = test system: normal human dermal fibroblasts (NHDF); experiment: MTT dark and light-induced cytotoxicity in NHDF; type: cell-based; settings: for pIC50: Homo sapiens, 24 h incubation; for pIC50 / Photodynamic ratio (PTR): NHDF; for Photodynamic ratio (PTR): IC50 dark/IC50 irradiated
Procedure: (§1) For potential applicability as photosensitizers in PDT, these candidates are expected to display cytotoxic effects only after photoactivation, namely, and preferably restricted to target tissue cells, without inducing damage to healthy counterparts. To evaluate this, prostate adenocarcinoma PC-3 cells and non-tumoral NHDF fibroblasts were incubated with increasing concentrations of the squaraine dyes for 24 h. Subsequently, the cells were irradiated using an LED system centered at 663 nm, a wavelength close to the absorption maximum of the monomeric dye forms. Twenty-four hours post-irradiation, cellular metabolic activity was assessed by the MTT assay.
(§2) The in cell photocytotoxicity of the squaraine dyes was assessed using the MTT assay. When cells reached 90–95% confluence, they were trypsinized using a trypsin-EDTA solution (0.125 g/L trypsin, 0.02 g/L EDTA), counted via trypan-blue exclusion in a Neubauer chamber, and diluted to 2 × 10^4 cells/mL. A 100 µL aliquot of this suspension was seeded into each well of 96-well plates and incubated for 48 h to allow for cell attachment and resumption of proliferation.
(§3) After this period, the medium was removed, and cells were treated with various concentrations of the squaraine dyes (0.01, 0.1, 1, 2.5, 5, and 10 µM) in the appropriate culture medium. […] Negative controls consisted of cells exposed only to culture medium. All experiments were performed in quadruplicate and independently repeated.
(§4) After 24 h of exposure to the dyes, the cells were subjected to two different irradiation conditions: the first group was not irradiated and was protected from ambient light for 21 min, and the second group was irradiated for 7 min.
(§5) Twenty-four hours post-irradiation, the culture medium was removed, cells were washed with 100 µL PBS, and 100 µL of MTT solution (5 mg/mL in serum- and antibiotic-free medium) was added per well. Cells were incubated for 4 h at 37 °C, after which the supernatant was discarded, and the formazan crystals were solubilized in dimethyl sulfoxide. Absorbance was measured at 570 nm using a Bio-Rad xMark microplate reader.
(§6) Cell viability was expressed as the percentage of absorbance in treated samples relative to the untreated negative control. Data were statistically analyzed by ordinary two-way ANOVA followed by the Šidák multiple comparisons test, comparing irradiated and non-irradiated conditions at the same concentration, with differences considered statistically significant at a p-value < 0.05. Half-maximal inhibitory concentration values reported in this work were obtained by fitting the data to a sigmoidal model with a 95% confidence interval. All assays were performed in quadruplicate and replicated independently at least twice. Phototoxicity and tumor selectivity ratios were quantified according to Equations (6) and (7):(6) PTR = IC50 dark condition/IC50 irradiated condition (7) TSR = IC50 for NHDF cells under irradiated condition/IC50 for cancer cell line under irradiated condition
(§7) Irradiation was performed using a light-emitting diode array centered at 663 ± 8 nm to match the absorption maximum of the dyes. The LED (Roithner; 8.3 mW radiant flux) was integrated into flat-bottom 96-well plates and powered by a regulated current source. The irradiance was 15.8 mW/cm^2, and the total energy delivered per well was 3.49 J after 7 min, ensuring precise light dosing for all experiments.

[4] = test system: prostate adenocarcinoma (PC-3) cell line; experiment: MTT dark and light-induced cytotoxicity in PC-3; type: cell-based, human; settings: for pIC50: Homo sapiens, 24 h incubation; for tumor selectivity ratio (TSR): IC50 NHDF irradiated/IC50 PC-3 irradiated; for Photodynamic ratio (PTR): PC-3, IC50 dark/IC50 irradiated
Procedure: as §1, §2, §3, §4, §5, §6, §7

[5] = phosphate buffer, bound vs free
[6] = slope of fluorescence intensity vs HSA concentration
[7] = light or radiation study, Light, 7 min LED 663 nm, MTT 24 h post-irradiation
[8] = light or radiation study, PC-3, Light, 7 min LED 663 nm, MTT 24 h post-irradiation

SMILES | aggregation behavior [1] | sensitivity (S) [2] [nM⁻¹] | detection limit (DL) [2] [nM] | quantification limit (QL) [2] [nM] | fluorescence intensity without protein (F0) [2] [a.u.] | fluorescence intensity at the highest protein concentration (F) [2] [a.u.] | Stokes shift (ΔS) [2] [nm] | absorption maximum (λabs) [2] [nm] | emission maximum (λem) [2] [nm] | fluorescence quantum yield (ΦF) [2] | F/F0 [2] | incubation time to reach maximum fluorescence with HSA [2] [h] | sensitivity (S) [2, 6] | pIC50 [3, 7] | pIC50 ([3]; Dark, MTT 24 h later) | Photodynamic ratio (PTR) [3] | pIC50 [4, 8] | pIC50 ([4]; PC-3, Dark, MTT 24 h later) | incubation time for maximum interaction with HSA [2] | tumor selectivity ratio (TSR) [4] | other results
CC1(C)C(=CC2=C([O-])C(=CC3=[N+](CCCc4ccccc4)c4ccccc4C3(C)C)C2=O)N(CCCc2ccccc2)c2ccccc21 [Dye 5, 4-[3,3-Dimethyl-1-(3-phenylpropyl)-indol-1-ium-2-ylmethylene]-2-[3,3-dimethyl-1-(3-phenylpropyl)indolin-2-ylidenemethyl]-3-oxocyclobut-1-en-1-olate] | coexistence of H- and J-type aggregates | 209000 | 266 | 886 | 11.46 | 680.15 | 45 | 604 | 649 | 0.20 | 59.35 | 24 | 209000 nM⁻¹ | 5.13 | < 5.00 | >1.4 | 6.05 | < 5.00 |  |  | blue shift in maximum emission wavelength upon HSA binding [2, 5]: 47 nm; reduction in Stokes shift upon HSA binding [2, 5]: 50%; reduction in viability ([3]; normal fibroblasts, irradiated, up to 2.5 μM): ≤ 30%; reduction in viability ([4]; PC-3 cells, irradiated, 1.0 μM): approximately 60%
CC1(C)C(=CC2=C(N)C(=CC3=[N+](CCCc4ccccc4)c4ccccc4C3(C)C)C2=O)N(CCCc2ccccc2)c2ccccc21.[I-] [Dye 9, 2-{2-Amino-3-[3,3-dimethyl-1-(3-phenylpropyl)indolin-2-ylidenemethyl]-4-oxocyclobut-2-en-1-ylidenemethyl}-3,3-dimethyl-1-(3-phenylpropyl)-indol-1-ium Iodide] | coexistence of H- and J-type aggregates | 318000 | 324 | 1079 | 9.30 | 917.53 | 8 | 651 | 659 | 0.07 | 98.66 |  | 318 µM | 5.42 | 5.17 | 1.8 | 7.03 | 5.92 | immediately upon addition to the protein solution | 40.8 | Photodynamic ratio (PTR) [4]: 13
CNC1=C(C=C2N(CCCc3ccccc3)c3ccccc3C2(C)C)C(=O)C1=CC1=[N+](CCCc2ccccc2)c2ccccc2C1(C)C.[I-] [Dye 11, 2-{3-[3,3-Dimethyl-1-(3-phenylpropyl)indolin-2-ylidenemethyl]-2-(methylamino)-4-oxocyclobut-2-en-1-ylidenemethyl}-3,3-dimethyl-1-(3-phenylpropyl)-indol-1-ium Iodide] | coexistence of H- and J-type aggregates; also recorded: lowest tendency to aggregate |  | 420 | 1401 | 1.00 | 360.94 | 10 | 652 | 662 | 0.04 |  |  | 119 µM | 5.49 | 5.18 | 2.0 | 7.05 | 5.84 | immediately upon addition to the protein solution | 36.0 | Photodynamic ratio (PTR) [4]: 16
CC1(C)C(=CC2=C(NCc3ccc4ccc5cccc6ccc3c4c56)C(=CC3=[N+](CCCc4ccccc4)c4ccccc4C3(C)C)C2=O)N(CCCc2ccccc2)c2ccccc21.[I-] [Dye 14, 2-({3-[3,3-dimethyl-1-(3-phenylpropyl)indolin-2-ylidenemethyl]-4-oxo-2-[(pyren-1-ylmethyl)amino]cyclobut-2-en-1-ylidene}methyl)-3,3-dimethyl-1-(3-phenylpropyl)-indol-1-ium Iodide] | predominantly form J-aggregates |  | 361 | 1203 | 4.12 | 115.89 | 4 | 663 | 667 | 0.01 | 28.13 | 24 | 39 µM | < 5.00 | < 5.00 |  | < 5.00 | < 5.00 |  |  | 
